From patent US20050209278A1, “Piperidinyl- and piperazinyl-sulfonylmethyl hydroxamic acids and their use as protease inhibitors” (priority 2002, published 2005) come the findings set out here.

Like-named read-outs stand apart in the source and are kept apart here. Bounds are passed on as bounds.

One may read the Ki as the equilibrium dissociation constant of an inhibitor or competing ligand from its target.

The target of one assay is T1, MMP-13 (Homo sapiens, UniProt P45452).
T1 construct: made in house; host or cells: baculovirus / insect cells
As to the kind of experiment: In vitro MMP inhibition, Ki determination (fluorogenic substrate II). It is filed as biochemical. The settings on record: read-out: MMP-13 Ki. The method, boiled down:
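Room-temperature, 1 h incubation of APMA-activated recombinant human MMP-13 with 4 μM quenched substrate II (cleaved at Gly-Leu) in pH 7.5 Tris/NaCl/CaCl2 buffer. Inhibition appears as a slowed rise in 330/420 nm fluorescence. Single low enzyme and substrate levels were used for Ki.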

For a further assay, the target named is T2, MMP-9 (Homo sapiens, UniProt P14780).
T2 construct: made in house; host or cells: MMP-9-transfected HT1080 cells (spent media)
T2 sequence (P14780 107-707 limits assumed): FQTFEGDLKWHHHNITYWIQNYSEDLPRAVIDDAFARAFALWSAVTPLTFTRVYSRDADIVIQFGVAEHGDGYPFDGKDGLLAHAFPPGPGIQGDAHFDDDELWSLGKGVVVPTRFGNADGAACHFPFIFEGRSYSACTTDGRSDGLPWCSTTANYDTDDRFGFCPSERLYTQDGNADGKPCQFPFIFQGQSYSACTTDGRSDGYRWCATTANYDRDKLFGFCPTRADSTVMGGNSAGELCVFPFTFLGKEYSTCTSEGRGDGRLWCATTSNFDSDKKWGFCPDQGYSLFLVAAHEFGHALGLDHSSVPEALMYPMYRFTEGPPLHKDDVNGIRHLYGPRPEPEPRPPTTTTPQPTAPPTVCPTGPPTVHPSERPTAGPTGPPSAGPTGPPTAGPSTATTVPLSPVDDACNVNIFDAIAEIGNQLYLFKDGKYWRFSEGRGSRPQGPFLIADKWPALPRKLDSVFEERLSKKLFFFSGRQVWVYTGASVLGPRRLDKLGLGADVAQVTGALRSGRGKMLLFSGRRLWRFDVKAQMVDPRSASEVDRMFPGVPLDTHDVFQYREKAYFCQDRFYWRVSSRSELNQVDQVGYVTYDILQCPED
The assay is described as above. It is filed as biochemical. The method, boiled down: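 HT1080-derived MMP-9, activated with APMA, trypsin or MMP-3, incubated 1 hr at room temperature with inhibitor and 4 μM fluorogenic substrate II (at or below Km) in pH 7.5 Tris/NaCl/CaCl2 buffer; ex 330/em 420 nm. Ki from Morrison-equation regression, without substrate correction.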

With `O=C(NO)C1(S(=O)(=O)N2CCC(COCc3ccc(OC(F)(F)F)cc3)CC2)CCOCC1` [Example 404], the Ki at MMP-13 (value outside parentheses) came out at 0.33 nM; at MMP-9 (value outside parentheses), 2.29 nM.
In the case of `O=C(NO)C1(S(=O)(=O)N2CCC(c3ccc(-c4cccc(F)c4)cn3)CC2)CCOCC1` [Example 417], the results for the Ki on MMP-13 (value outside parentheses) and on MMP-9 (value outside parentheses) were 3.84 nM and 4.1 nM, respectively.
For `O=C(NO)C1(S(=O)(=O)N2CCC(c3ccc(-c4cccs4)c(F)c3)CC2)CCOCC1` [Example 407], in that order: 0.78 nM and 1.9 nM.
For `CCCCCC/C=C/C1CCN(S(=O)(=O)C2(C(=O)NO)CCOCC2)CC1` [Example 402], the Ki on MMP-13 (value outside parentheses) came out at 0.58 nM; at MMP-9 (value outside parentheses), 0.19 nM.
With `O=C(NO)C1(S(=O)(=O)N2CCC(COCc3ccc(SC(F)(F)F)cc3)CC2)CCOCC1` [Example 405], the values for the Ki at MMP-13 (value outside parentheses) and at MMP-9 (value outside parentheses) were 0.18 nM and 3.39 nM, respectively.
For `O=C(NO)C1(S(=O)(=O)N2CCC(c3ccc(OCCC(F)(F)F)cn3)CC2)CCOCC1` [Example 418], in that order: 0.46 nM and 1.86 nM.
The corresponding values for `CCCCOc1ccc(C2CCN(S(=O)(=O)C3(C(=O)NO)CCOCC3)CC2)nc1` [Example 410] are 0.2 nM and 0.55 nM.
For `CCc1ccc(-c2ccc(C3CCN(S(=O)(=O)C4(C(=O)NO)CCOCC4)CC3)nc2)cc1` [Example 393], in that order: 1.09 nM and 4.86 nM.
On to `Cc1cccc(-c2csc(N3CCN(S(=O)(=O)C4(C(=O)NO)CCOCC4)CC3)n2)c1` [Example 413], for which the Ki is 4830 nM at MMP-13 (value outside parentheses) and > 10000 nM at MMP-9 (value outside parentheses).
The corresponding values for `CCCC#Cc1cnc(N2CCN(S(=O)(=O)C3(C(=O)NO)CCOCC3)CC2)s1` [Example 400] are 0.28 nM and 1.4 nM.
The corresponding values for `O=C(NO)C1(S(=O)(=O)N2CCN(c3ccc(-c4nn[nH]n4)cc3)CC2)CCOCC1` [Example 419] are 34 nM and 112 nM.
`CCC(F)(F)CCc1ccc(C2CCN(S(=O)(=O)C3(C(=O)NO)CCOCC3)CC2)cn1` [Example 411]: the Ki on MMP-13 (value outside parentheses) is 7.75 nM; on MMP-9 (value outside parentheses), 2.04 nM.
The corresponding values for `CCCCc1ccc(C2CCN(S(=O)(=O)C3(C(=O)NO)CCN(CCOC)CC3)CC2)nc1` [Example 397] are 0.54 nM and 0.09 nM.
For `O=C(NO)C1(S(=O)(=O)N2CCN(c3nc(-c4ccccc4)cs3)CC2)CCOCC1` [Example 415], in that order: 2420 nM and > 10000 nM.
For `O=C(NO)C1(S(=O)(=O)N2CCC(COCc3ccc(C(F)(F)F)cc3)CC2)CCOCC1` [Example 403], in that order: 2.47 nM and 7.37 nM.
As to `O=C(NO)C1(S(=O)(=O)N2CCN(c3ncc(-c4ccc(Cl)cc4)cn3)CC2)CCOCC1` [Example 66], the inhibitory constant (Ki) came to 0.25 nM on MMP-13 (value not in parenthesis) and 0.52 nM on MMP-9 (value not in parenthesis).
In the case of `Cc1ccc(-c2csc(N3CCN(S(=O)(=O)C4(C(=O)NO)CCOCC4)CC3)n2)cc1` [Example 412], the Ki on MMP-13 (value outside parentheses) and at MMP-9 (value outside parentheses) was > 10000 nM throughout.
Regarding `CCCCCCCOC1CCN(S(=O)(=O)C2(C(=O)NO)CCOCC2)CC1` [Example 406], the inhibitory constant (Ki) turned out to be 1.28 nM on MMP-13 (value outside parentheses) and 0.76 nM at MMP-9 (value outside parentheses).
Consider `O=C(NO)C1(S(=O)(=O)N2CCC(c3ccc(-c4ccccn4)cn3)CC2)CCOCC1` [Example 409], for which the inhibitory constant (Ki) turned out to be 22.3 nM at MMP-13 (value outside parentheses) and 13.6 nM on MMP-9 (value outside parentheses).
The corresponding values for `CCCCc1ccc(C2(O)CCN(S(=O)(=O)C3(C(=O)NO)CCOCC3)CC2)nc1` [Example 420] are 175 nM and 80.3 nM.
On to `CCCCCC/C=C\C1CCN(S(=O)(=O)C2(C(=O)NO)CCOCC2)CC1` [Example 401], for which the Ki was found to be 9.05 nM at MMP-13 (value outside parentheses) and 4.22 nM at MMP-9 (value outside parentheses).
For `O=C(NO)C1(S(=O)(=O)N2CCC(c3ccc(OCc4ccccc4)cn3)CC2)CCOCC1` [Example 398], in that order: 0.15 nM and 5.67 nM.
On to `CCCCc1cnc(N2CCN(S(=O)(=O)C3(C(=O)NO)CCOCC3)CC2)nc1` [Example 105], for which the inhibition constant Ki on MMP-13 (value not in parenthesis) was 1.88 nM; on MMP-9 (value not in parenthesis), 0.74 nM.
With `N#Cc1ccc(-c2cnc(N3CCN(S(=O)(=O)C4(C(=O)NO)CCOCC4)CC3)s2)cc1` [Example 399], the Ki on MMP-13 (value outside parentheses) turned out to be 0.04 nM; on MMP-9 (value outside parentheses), 0.57 nM.
Turning to `O=C(NO)C1(S(=O)(=O)N2CCC(c3ccc(N4CCCC4)cn3)CC2)CCOCC1` [Example 408], the Ki at MMP-13 (value outside parentheses) amounted to 11 nM; at MMP-9 (value outside parentheses), 10.2 nM.
Regarding `CCCCc1ccc(N2CCN(S(=O)(=O)C3(C(=O)NO)CCOCC3)CC2)nc1` [Example 168], the inhibitory constant (Ki) on MMP-13 (value not in parenthesis) stood at 0.21 nM; at MMP-9 (value not in parenthesis) it was 0.16 nM.
In the case of `Cc1ccc(-c2ccc(C3CCN(S(=O)(=O)C4(C(=O)NO)CCOCC4)CC3)nc2)s1` [Example 416], the Ki at MMP-13 (value outside parentheses) came out at 1.35 nM; at MMP-9 (value outside parentheses), 1.49 nM.
